A word on the pA2: it is a measure of antagonist potency on a negative log scale.

Here are results for nine molecules from patent publication US4757074A, “Piperazinyl benzyl acids having antihistamine activity” (Burroughs Wellcome Co., priority 1983, dated 1988).

The target in series [1] is T1, longitudinal muscle from the intact ileum of guinea-pigs (response to histamine) (Cavia porcellus, UniProt P31389).
T1 construct: The longitudinal muscle was isolated from the intact ileum of guinea-pigs; from tissue; host or cells: longitudinal muscle of guinea-pig ileum (Hartley, male)
Briefly: In vitro antihistaminic activity (inhibition of histamine concentration-response in isolated ileum longitudinal muscle). Also on record: species or system guinea-pigs (Hartley, male). Conditions: negative log of the concentration which gives a significant antihistaminic effect; guinea-pig ileum longitudinal muscle; one hour incubation with test compound; Arunlakshana and Schild method; read-out: pA2 (converted). How it is done: In vitro antihistaminic activity: The longitudinal muscle was isolated from the intact ileum of guinea-pigs (Hartley, male, 250-400 g) and placed in an organ bath under 300 mg tension. After one hour of equilibration, cumulative concentration-response curves (Van Rossum, J. M., Arch. Int. Pharmacodyn. Ther. 143, 299-330, 1963) to histamine were obtained. Following washing, the tissues were incubated for one hour with the test compound and then a second histamine concentration-response curve was run. Antihistaminic activity was determined as pA2 values by the method of Arunlakshana, O. and Schild, H. O. (Br. J. Pharmacol: 14, 48-58, 1959).

Series [2] has as its target T1, longitudinal muscle from the intact ileum of guinea-pigs (response to histamine). The settings on record: literature value, R. B. Barlow, Introduction to Chemical Pharmacology, 2nd ed., p. 357, 1964; cited from earlier work.
For series [3] the following is noted: clinical use, most patients; Goodman and Gilman, 4th ed., p. 640, 1970; cited from earlier work.

The structures appear in SMILES notation.

T1 sequence (P31389 whole entry): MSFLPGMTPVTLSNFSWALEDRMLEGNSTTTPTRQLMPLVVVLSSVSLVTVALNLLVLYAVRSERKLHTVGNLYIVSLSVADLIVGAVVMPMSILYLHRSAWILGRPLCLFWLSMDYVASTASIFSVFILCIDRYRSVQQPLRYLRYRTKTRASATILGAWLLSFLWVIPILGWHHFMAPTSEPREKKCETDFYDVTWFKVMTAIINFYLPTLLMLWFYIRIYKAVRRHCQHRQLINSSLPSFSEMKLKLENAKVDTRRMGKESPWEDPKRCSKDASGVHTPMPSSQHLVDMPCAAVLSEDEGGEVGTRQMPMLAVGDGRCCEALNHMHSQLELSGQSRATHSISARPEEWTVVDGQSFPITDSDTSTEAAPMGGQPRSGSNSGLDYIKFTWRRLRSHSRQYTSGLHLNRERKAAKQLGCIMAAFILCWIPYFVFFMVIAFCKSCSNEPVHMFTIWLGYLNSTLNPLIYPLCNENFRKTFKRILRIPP

For the molecule `CN1CCN(C(c2ccc(Cl)cc2)c2cccc(/C=C/C(=O)O)c2)CC1` (stereo not drawn) [A, (E)-3-(4-Chloro-α-(4-methyl-1-piperazinyl)-benzyl)cinnamic acid], the Kb in series [1] was 0.501 µM. For `CN1CCN(C(c2ccc(Cl)cc2)c2cccc(C(=O)O)c2)CC1` (stereo not drawn) [B, 3-(4-Chloro-α-(4-methyl-1-piperazinyl)benzyl)benzoic acid], the Kb in series [1] is 0.398 µM. Same read-out and setting: to `CN1CCN(C(c2ccc(Cl)cc2)c2ccccc2C(=O)O)CC1` (stereo not drawn) [C, 2-(4-Chloro-α-(4-methyl-1-piperazinyl)benzyl)benzoic acid] belongs 2.51 µM. As for `CN1CCN(C(c2ccccc2)c2ccc(Cl)cc2)CC1` (stereo not shown) [Chlorcyclizine, 1-(4-Chlorobenzhydryl)-4-methylpiperazine], the pA2 in series [2] was 8.6. The sedation and drowsiness entry in series [3] is “produces sedation and drowsiness in varying degrees in most patients”.

As for `CN1CCN(C(c2ccc(Cl)cc2)c2ccc(C(=O)O)cc2)CC1` (stereo not drawn) [D, 4-(4-Chloro-α-(4-methyl-1-piperazinyl)benzyl)benzoic acid], in series [1], the Kb is 2.51 µM. As for `COc1ccc(C(c2cccc(C(=O)O)c2)N2CCN(C)CC2)cc1` (stereo not drawn) [E, 3-(4-Methoxy-α-(4-methyl-1-piperazinyl)benzyl)benzoic acid], in series [1], the Kb is 0.316 µM. `CN1CCN(C(c2ccc(Cl)cc2)c2cccc(OCC(=O)O)c2)CC1` (stereo not drawn) [F, 3-(4-Chloro-α-(4-methyl-1-piperazinyl)benzyl)phenoxyacetic acid]: in series [1], the Kb is 0.158 µM. Regarding `Cc1cccc(CN2CCN(C(c3ccc(Cl)cc3)c3cccc(OCC(=O)O)c3)CC2)c1` (stereo not drawn) [G, 3-(4-Chloro-α-(4-(3-methylbenzyl)-1-piperazinyl)benzyl)phenoxyacetic acid], the Kb in series [1] was 0.00158 µM.

Consider `CC(C)(C)c1ccc(CN2CCN(C(c3ccc(Cl)cc3)c3cccc(OCC(=O)O)c3)CC2)cc1` (stereo not drawn) [H, 3-(4-Chloro-α-(4-(4-tert-butylbenzyl)-1-piperazinyl)benzyl)phenoxyacetic acid], for which, in series [1], the Kb is 0.00631 µM.
